Data: patent US7129250B2, “Neuroprotective and anti-proliferative compounds” (Aegera Therapeutics Inc., priority 2000, dated 2006)
Where “and” joins values, the source holds several entries; their conditions need not be identical. Equal values may be shown once.

Assays:
SHSY-5Y cells = test: Etoposide Killing of SHSY-5Y; format: cell-based; settings: etoposide 32 uM, drug 1 μM
Experimental: SHSY-5Y cells were grown in growth media. Cells are placed at 50,000 cells per 96 well. Four days latter the cells were treated with drug for 48 hours prior to etoposide (32 uM) treatment. On day 6 media was changed to that containing etoposide and drug for 4 hours, at which point the media was changed to media containing drug only. Cells are allowed to survive overnight and then assessed for viability with metabolic activity measured (WST-1-Beohringer Mannheime), as shown in TABLE 13.

CGNs [1] = test: β-Amyloid Aggregation Assay in CGNs; format: cell-based; settings: for IC50: Aβ 25 μM, assayed 5 days after Aβ addition
From the text: Various mechanisms have been put forward in order to account for the neurotoxicity related to extracellular Aβ fibril formation. […] Regardless of the mode of action, extracellular Aβ fibril formation acts as an effective apoptotic trigger for neuronal cells and serves as an in vitro model for various neurodegenerative diseases characterized by extracellular protein fibril formation, typified by diseases such as AD and PD.
CGNs were harvested from day 8/9 post-natal CD1 mice, plated on Poly-D-Lycine coated plates and incubated for 6 days at 37° C. under 5% CO2. Pretreated cells were treated with drug 24 hours prior to A-β (25 μM) and drug addition.

CGNs [2] = test: Ceramide Killing of CGNs; format: cell-based, CD1 mice; settings: ceramide 100 uM
From the text: Ceramide is a native […] found in most mammalian and human cells. The upregulation of endogenous ceramide has been linked to caspase 1 (ICE) induced apoptosis (Suzuki, A. et al. Exp. Cel. Res., 1997, 233, 41). In a similar fashion, the addition of ceramide to cultured CGNs results in caspase induced apoptosis, and is therefore considered an effective in vitro model for the various neurodegenerative diseases described above, which are characterized by caspase induced apoptosis, as observed in stroke models. Addition of selected compounds of the formula I through III, 24 hours prior to the addition of ceramide, to cultured CGNs provided protection against apoptosis, with 10 to 20% of the cells being saved at 1–10 μM drug concentrations (see Example 114).
CGNs were harvested from day 8/9 post-natal CD1 mice, plated on Poly-D-Lycine coated plates and incubated for 6 days at 37° C. under 5% CO2. Cells were pretreated with drug 24 hours prior to ceramide (100 uM) and drug addition.

CGNs [3] = test: High/Low Potassium (HK/LK) assay in CGNs; format: cell-based; settings: for IC50: Mus musculus, HK/LK switch, drug 24 h pre-treatment, assayed 16 h after media change, concentration at which cell death was inhibited by 50%
Experimental: Cultured CGNs which are maintained in a medium containing 26 mM potassium (high K^+ or HK) undergo cell death when the medium is changed to one containing 5 mM potassium (low K^+ or LK). HK maintains the cells in a highly polarized state, duplicating that of fully innervated neurons. The switch to LK (5 mM is more representative of physiological conditions) results in depolarization of the cells, mimicking the loss of neuronal conductivity. […] As these killer genes are turned on by various types of neuronal insult as observed in AD, PD, and stroke, HK/LK is a general in vitro model for neuronal degradation, blanketing a wide range of neurodegenerative diseases. Compounds that protect against HK/LK in CGNs would therefore be efficacious in treatment and/or prevention of various neurodegenerative disease states.
CGNs were harvested from day 8/9 post-natal CD1 mice, plated on Poly-D-Lycine coated plates and incubated for 6 days at 37° C., with […] potassium, under 5% CO2. Pretreated cells were treated with drug 24 hours prior to changing the media to one containing […] potassium and drug. Cells were assayed 16 hours after the final media change using cell TITER96 (Promega).

CGNs [4] = test: Glutamate Killing of CGNs; format: cell-based, CD1 mice; settings: glutamate 100 uM
From the text: Glutaminergic neurons secrete the neurotransmitter glutamate as a part of normal cell signaling processes. Intracellular glutamate levels are regulated by glial cell uptake and conversion to glutamine. Under conditions of oxidative stress, as observed in various neurodegenerative diseases such as stroke, ALS, PD, and HD, glutaminergic neurons release massive amounts of glutamate into the […] fluid, overwhelming the surrounding cells. Stimulation of both NMDA and non NMDA-type glutamate excitory receptors leads to sustained depolarization of postsynaptic dendrosomal membranes, increased membrane permeability, and impaired ion homeostasis, all leading to either apoptotic or necrotic cell death.
CGNs were harvested from day 8/9 post-natal CD1 mice, plated on Poly-D-Lycine coated plates and incubated for 6 days at 37° C. under 5% CO2. Cells were pretreated with drug 24 hours prior to glutamate (100 uM) and drug addition.

Cortical neurons = test: Cisplatin Killing of Cortical Neurons; format: cell-based, Sprague-Dawley rats; settings: for % Protection at 10 μM: drug 10 μM 24 h pre-treatment
Experimental: Cortical neurons were harvested from day E18 female Sprague-Dawley rats, plated on Poly-L-Lycine coated plates and incubated for 14 days at 37° C. under 5% CO2. […]

CGNs [5] = test: Cisplatin Killing of CGNs; format: cell-based, CD1 mice; settings: for survival: 300 nM drug, cisplatin
Experimental: Cisplatin has been used extensively in the treatment of various cancers. One dosblimiting side effect of this chemotherapeutic agent is related to hearing loss as a result of its toxicity to auditory neurons and loss of feeling in the extremities. Cisplatin induces apoptosis to both cultured CGN and cortical neurons.
CGNs were harvested from day 8/9 post-natal CD1 mice, plated on Poly-D-Lycine coated plates and incubated for 6 days at 37° C. under 5% CO2. The cells were treated with media containing drug and cisplatin […].

[6] = system: OV 2008 ovarian cancer cells; test: Cisplatin induced apoptosis of OV 2008 ovarian cancer cells; format: cell-based; settings: cisplatin (20 μg/mL)
From the text: Regardless of its neuroprotective capability, if a compound interferes with chemotherapy by protecting cancer cells from an apoptotic stimuli then the compound is of less value as an anti-cancer therapeutic.

Caspase 3 = Caspase 3 induction during HK/LK killing of CGNs; format: cell-based, CD1 mice
From the text: Caspase 3 induction ultimately leads to cell death and is observed in any number of neurodegenerative diseases. Compounds which inhibit caspase 3 induction represent potent therapies for various neurodegenerative diseases.

SCG neurons = test: NGF Withdrawal Killing of SCG Neurons; format: cell-based, Sprague-Dawley rats; settings: Rattus norvegicus, Neuron, assayed 48 hours after drug
From the text: Cultured Superiour Cervical Ganglion (SCG) neurons of the PNS which have been sustained in media containing Neuron Growth Factor (NGF) undergo apoptotic cell death upon removal of the NGF from the cellular medium. Loss of neuronal trofin support has been implicated in various neurodegenerative disease states in the PNS, such as diabetic neuropathy and neuropahies related to chemotherapeutic and anti-HIV drug treatment.
SCG neurons were harvested from day 1 post natal Sprague-Dawley rats, plated on collagen coated plates and incubated for 5 days in the presence of 50 ng/mL NGF at 37° C. under 5% CO2. The cells were washed with NGF free media, 4 times at 1 hour intervals, at which time drug was added.

HIAP1 mRNA in LAN5 cells = test: LAN5 HAIP1 Down Regulators (RNA levels); format: cell-based; settings: HIAP1 RNA level vs control = 1.0; 24 hours drug
Experimental: LAN5 cells were grown in growth media. Cells were plated at cells 50,000 per well in 96 cells per 96 wells. Five days latter drug was added and the cells were liced 24 hours latter using RLT buffer.

[7] = system: rat spinal cord ex-plants; test: Spinal Cord Explant neurite extension; format: cell-based; settings: 3 μM; ex-plants on growth inhibitory substrates
From the text: The inability of neurites to regenerate or overcome stimuli which inhibit or prevent the formation of normal neuritic extensions and connections is characteristic of the conditions found in spinal cord and related injuries, AD and the like. Select compounds of this invention promote the formation of neuritic extension in spinal cord ex-plants which have been cultured on growth inhibitory substrates.
Spinal cords from P1 rat pups were isolated for neurite extension analysis. Lumbar cord was separated in two along the spinal canal. […] lateral sections were obtained with a McIlwain tissue chopper. Slices were cultured in poly L-lysine coated 24 well plates in Neurobasal media supplemented with B27, penicillin, streptomycin, and glutamate. Test compounds were added to the media and neurite extension out of the explant onto the poly L-coated plastic was assessed after 7 days in culture. Neurites were visualized either by phase contrast microscopy or by beta 3 tubulin immunofluorescence.

[8] = Mus musculus, assayed 48 hours after final drug treatment
[9] = cisplatin induced apoptosis in CGNs
[10] = assayed 48 hours after final drug treatment

SMILES	% CGN Survival (CGNs [2]; drug 1 μM) [%]	% CGN Survival (CGNs [4]; drug 100 nM) [%]	% CGN Survival (CGNs [4]; drug 1 μM) [%]	IC50 (CGNs [5]; [8]) [µM]	IC50 (CGNs [1]; Mus musculus, 120 h) [µM]	% CGN Survival (CGNs [2]; drug 10 μM) [%]	% Protection at 10 μM (Cortical neurons)	further results
CCSCc1ccc2c(c1)c1c3c(c4c5cc(CSCC)ccc5n5c4c1n2[C@H]1C[C@](O)(C(=O)OC)[C@]5(C)O1)CNC3=O [CEP 1347, reference compound]	1.8	0	7.0	–	–	–	–	% SHSY-5Y cell survival (SHSY-5Y cells): 12.5%; protection (CGNs [1]; concentrations below 300 nM): > 10%; % CGN Survival (CGNs [2]; 300 nM, (250 nM in source)): 0 (250 nM) %; IC50 (CGNs [3]): 1 µM; toxicity (CGNs [3]; higher doses): toxic at higher doses; % CGN Survival (CGNs [4]; 300 nM, (250 nM in source)): 50.0 (250 nM) %; % Protection (Cortical neurons; drug at 0.3 μM, cisplatin): 32%
COc1ccc2[nH]cc(C3=C(n4ccc5ccccc54)C(=O)NC3=O)c2c1 [Compound 2, 3-(5-Methoxyindol-3-yl)-4-(indol-1-yl)-1H-pyrrole-2,5-dione]	–	–	–	10	10	–	–	–
O=C1NC(=O)C2=C1c1c([nH]c3ccccc13)C1Cc3ccccc3N21 (stereo not drawn) [Compound 24]	11.4	0	17.0	3	10	10.7	–	IC50 (CGNs [3]): 10 µM; % CGN Survival (CGNs [4]; drug 10 μM): 22.3%
O=C1NC(=O)C2=C1c1c([nH]c3ccc(OCc4ccccc4)cc13)C1Cc3ccccc3N21 (stereo not drawn) [Compound 35]	–	–	–	–	–	–	10% and 11%	survival (CGNs [5]): 80%; IC50 (CGNs [5]; [9]): 0.1 µM
O=C1NC(=O)C2=C1c1c(n(CCO)c3ccc(OCc4ccccc4)cc13)C1Cc3ccccc3N21 (stereo not drawn) [Compound 36]	–	–	–	–	–	–	9%	survival (CGNs [5]): 80%; IC50 (CGNs [5]; [9]): 0.1 µM; protection of cancer cells from cisplatin induced apoptosis [6]: did not protect
O=C1NC(=O)c2c1c1c3ccccc3[nH]c1c1cc3ccccc3n21 [Compound 42]	20.0	–	–	3	1	18.0	–	inhibition at 10 µM (Caspase 3; Mus musculus): 50%; IC50 (CGNs [3]): 3 µM; IC50 (SCG neurons): 20 µM
COc1ccc2c(c1)c1c3c(n4c5ccccc5cc4c1n2C(=O)COC(C)=O)C(=O)NC3=O [Compound 51]	–	–	–	1	–	–	20% and 23%	–
O=C1NC(=O)c2c1c1c3cc(OCc4ccccc4)ccc3[nH]c1c1cc3ccccc3n21 [Compound 52]	–	–	–	–	–	–	50% and 40%	IC50 (CGNs [5]; [10]): 3 µM
O=C1NC(=O)c2c1c1c3ccccc3[nH]c1c1nc3ccccc3n21 [Compound 53]	–	–	–	–	–	–	41%	–
O=C1C=C(c2c[nH]c3ccc(OCc4ccccc4)cc23)C(=O)N1 [Compound 64, 3-(1-H-5-benzyloxyindol-3-yl)-1H-pyrrole-2,5-dione]	18.0	0	4.0	–	–	5.1	–	inhibition of caspase 3 induction (Caspase 3; 10 μM): 33%; IC50 (CGNs [5]; [10]): 3 µM; IC50 (CGNs [1]): 1 µM; % CGN Survival (CGNs [4]; drug 10 μM): 32.5%
COc1ccc2c(c1)c(C1=CC(=O)NC1=O)cn2S(=O)(=O)c1ccc(C)cc1 [Compound 87, 3-(N-tosyl-5-methoxyindol-3-yl)-1H-pyrrole-2,5-dione]	0	0	11.5	–	10	9.1	–	Fold Induction (HIAP1 mRNA in LAN5 cells): 0.37
O=C1NCC2=C1N1c3ccccc3CC1c1c2c2ccccc2n1CCCO (stereo not drawn) [Compound 176]	–	–	–	–	–	–	–	formation of neuritic extensions [7]: induce the formation of neuritic extensions
